Patent US20200278355A1, “CONJUGATED PROTEINS AND USES THEREOF” (THE SCRIPPS RESEARCH INSTITUTE, priority 2017, published 2020)

Target: T1, HA-NR0B1-C274V binding to FLAG-SNW1 (Homo sapiens, UniProt P51843, C274V)
T1 construct: expressed in transfected cells; host or cells: HEK293T (pRK5-based plasmids)
Assay: Modified in vitro binding assay: HA-NR0B1-C274V from compound-treated HEK293T cells binding to FLAG-SNW1
Format: cell-based
Conditions: HEK293T cells expressing HA-NR0B1-C274V treated with compound, lysate binding to FLAG-SNW1
Protocol: FIG. 5A-FIG. 5G show covalent ligand targeting C274 disrupts NR0B1 protein complexes. […] Percentage of NR0B1 bound to SNW1 was normalized to vehicle (DMSO). A hit compound BPK-26 is marked in red. […] HEK293T cells expressing the indicated proteins were treated with BPK-29 or vehicle (3 h) prior to treatment with BPK-29yne (30 min). Immunoprecipiated proteins were analyzed by in-gel fluorescence-scanning and immunoblotting. […] HEK293T cells expressing HA-NR0B1-WT or HA-NR0B1-C274V proteins were treated with DMSO or BPK-29, after which lysates were generated and evaluated for binding to FLAG-SNW1, as shown in (B).
FIG. 11A-FIG. 11F illustrate a covalent ligand targeting Cys274 disrupts NR0B1 protein complexes. […] See also FIG. 5C. […] Top: Structures of screening hit BPK-28 and synthesized derivatives. […] FLAG-immunoprecipitates were prepared from each lysate and subjected to proteolytic digestion, whereupon tryptic peptides harboring C274 were analyzed by LC-MS/MS. […] Immunoprecipitates were analyzed by in-gel fluorescence-scanning to assess BPK-29yne labeling or by immunoblot for FLAG-NR0B1. […] In a modified in vitro binding assay shown in FIG. 5B, HEK293T cells expressing HA-NR0B1-WT or an HA-NR0B1-C274V mutant were treated with DMSO or BPK-26 (20 μM, 3 h), after which lysates were and interaction with FLAG-SNW1 assessed. […]

T1 sequence (P51843 whole entry C274V): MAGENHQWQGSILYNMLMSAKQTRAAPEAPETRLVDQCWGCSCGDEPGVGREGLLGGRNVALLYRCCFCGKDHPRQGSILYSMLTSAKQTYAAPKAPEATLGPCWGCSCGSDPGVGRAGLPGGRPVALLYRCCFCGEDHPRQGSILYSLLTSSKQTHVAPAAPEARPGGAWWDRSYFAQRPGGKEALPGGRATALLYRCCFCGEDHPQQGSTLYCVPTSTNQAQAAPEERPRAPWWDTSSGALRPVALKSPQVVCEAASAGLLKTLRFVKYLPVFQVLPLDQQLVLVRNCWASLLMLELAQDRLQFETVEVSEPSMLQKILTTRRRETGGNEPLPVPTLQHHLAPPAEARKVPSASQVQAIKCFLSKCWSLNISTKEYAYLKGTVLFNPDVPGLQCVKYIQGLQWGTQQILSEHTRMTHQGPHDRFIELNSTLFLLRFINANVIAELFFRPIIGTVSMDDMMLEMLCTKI

sensitivity of the C274V-NR0B1 interaction with SNW1 to ligand	SMILES
not sensitive	O=C(CCl)N(Cc1cccc(Cl)c1F)c1ccc(Cl)nc1 [BPK-26, 2-chloro-N-(3-chloro-2-fluorobenzyl)-N-(6-chloropyridin-3-yl)acetamide]
not sensitive	O=C(c1ccc(N2CCOCC2)cc1)N1CCCC(N(Cc2ccccc2)C(=O)CCl)CC1 (centres unmarked) [BPK-29, N-benzyl-2-chloro-N-(1-(4-morpholinobenzoyl)azepan-4-yl)acetamide]
